Assay results published in PubChem BioAssay (NCI).
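Five compound concentrations were applied to cells in 96-well plates for 48 hours; endpoints were derived by simple linear interpolation of the resulting dose-response curve. TGI: total growth inhibition.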

How the values were obtained:
Assay in all cases: NCI anticancer screen, dose series, 48 h
[1] = tested on: CCRF-CEM leukemia
[2] = tested on: DMS 273 small cell lung
[3] = tested on: HCC-2998 colon
[4] = tested on: HT29 colon
[5] = tested on: K-562 leukemia
[6] = tested on: M14 melanoma
[7] = tested on: NCI-H23 lung
[8] = tested on: OVCAR-4 ovarian
[9] = tested on: OVCAR-8 ovarian
[10] = tested on: SF-539 CNS
[11] = tested on: SK-MEL-2 melanoma
[12] = tested on: SK-OV-3 ovarian
[13] = tested on: SN12C renal
[14] = tested on: SNB-19 CNS
[15] = tested on: BT-549 breast
[16] = tested on: MDA-MB-435
[17] = tested on: NCI-H226 lung
[18] = tested on: PC-3 prostate
[19] = tested on: RPMI-8226 leukemia
[20] = tested on: SF-295 CNS

| SMILES | TGI [1] [µM] | TGI [2] [µM] | TGI [3] [µM] | TGI [4] [µM] | TGI [5] [µM] | TGI [6] [µM] | TGI [7] [µM] | TGI [8] [µM] | TGI [9] [µM] | TGI [10] [µM] | TGI [11] [µM] | TGI [12] [µM] | TGI [13] [µM] | TGI [14] [µM] | TGI [15] [µM] | TGI [16] [µM] | TGI [17] [µM] | TGI [18] [µM] | TGI [19] [µM] | TGI [20] [µM] |
| --- | --- | --- | --- | --- | --- | --- | --- | --- | --- | --- | --- | --- | --- | --- | --- | --- | --- | --- | --- | --- |
| O=C(O)Cn1c(=O)[nH]c(=O)c2[nH]cnc21 | > 100 | > 100 | > 100 | > 100 | > 100 | > 100 | > 100 | > 100 | > 100 | > 100 | > 100 | > 100 | > 100 | > 100 |  |  |  |  |  |  |
| O=C1/C(=C/c2ccccc2)CCc2ccccc21 | 18.3 |  | 38.6 | 32.7 | 20.5 | 37.4 | 45.8 | 28 | 65.5 | 31.3 |  | 67.5 | 56.1 | 22.7 | 29.7 | 28.2 | 35 | 38.6 | 9.42 | 34 |
| Cc1sc(N)c(S(=O)(=O)c2ccccc2)c1C | > 100 |  | > 100 | > 100 | > 100 | > 100 | > 100 | > 100 | > 100 | 71 | > 100 | > 100 | > 100 | > 100 | > 100 | > 100 | > 100 | > 100 | > 100 | > 100 |
| CC(C)(Oc1ccc2c(=O)cc(-c3ccccc3)oc2c1)C(=O)Nc1c(Cl)cccc1Cl | > 100 | > 100 |  | > 100 | > 100 | > 100 | > 100 |  | > 100 | > 100 | > 100 | > 100 |  | > 100 |  |  |  |  | > 100 | > 100 |
| CCOC(=O)CCC(NC(=O)c1ccc(Nc2cnc3ccc(C(F)(F)F)cc3n2)cc1)C(=O)OCC (stereo unspecified) | > 100 |  | > 100 | > 100 | > 100 | > 100 | > 72.5 | > 74.3 | 33.8 | 39 | > 100 | > 60.5 | > 100 | > 63.7 | 97.1 | > 100 | > 100 | > 100 | > 100 | > 100 |
| Cn1c2ccccc2n2c3ccccc3c(=O)c(C#N)c12 | > 100 |  | > 100 | > 100 | > 100 | > 100 | > 59.8 | > 100 | > 44.5 | > 80.8 | > 100 | > 100 | > 100 | > 100 | > 100 | > 100 | 34.1 | > 100 | > 26.7 | 55.1 |
| Brc1ccc2c(c1)C1C(CO2)C(c2ccccc2)=NN1c1ccccc1 (stereo unspecified) | > 100 | > 100 | > 100 | > 100 | > 100 |  | > 100 |  | > 100 |  | > 100 | > 100 |  | > 100 |  |  |  |  | > 100 | > 100 |
| COC(=O)CCc1cccnc1/C=N/O | > 100 | > 100 |  | > 100 | > 100 | > 100 | > 100 | > 100 | > 100 | > 100 | > 100 | > 100 | > 100 | > 100 |  |  | > 100 |  |  | > 100 |
| C[C@H](CCC(=O)O)[C@H]1CC[C@H]2[C@@H]3[C@H](O)C[C@@H]4C[C@H](O)CC[C@]4(C)[C@H]3CC[C@]12C | > 100 |  | 79.9 | 87.4 | > 100 | 85.2 | 64.7 | > 100 | 37.7 | 62.1 | 53.5 |  | > 100 | > 100 | > 100 | > 100 | 78.3 | > 100 | 54.8 |  |
| CC1(C)CCC[C@@]2(C)C1C(=O)[C@@H]1O[C@]1(C)[C@@H]2CO (stereo partly specified) | > 100 |  | 66.5 | > 100 | > 100 | > 100 | 67.9 | > 100 | > 100 | > 100 | 66.5 | > 100 | > 100 | > 100 | 43.6 | > 100 | > 100 | > 100 | 53.4 | > 100 |
| C[S+](C)CC(=O)c1ccc2c(c1)Sc1ccccc1O2 | > 100 |  | 7.71 | 9.15 | > 100 | 3.48 | 14 | 15.4 | 13.6 | 2.29 | 10 | 19.6 | 36.3 | 17.1 | 6.17 | 10.1 | 11.5 | 4.03 | > 39.2 | 16 |
| CNC(=O)CNC(=O)C(Cc1ccc(NC(=O)CCCCC(C)=O)cc1)NC(=O)C(CCC(=O)OCc1ccccc1)NC(=O)OC(C)(C)C (stereo unspecified) |  |  | > 100 | > 100 | > 100 | > 100 | > 100 | > 100 | > 100 | > 100 |  | > 100 | > 100 | > 100 | > 100 | > 100 | > 100 | > 100 | > 100 | > 100 |
| CCOC(=O)/C(C[C@H]1OC(C)(C)O[C@@H]1[C@H]1COC(C)(C)O1)=N/O | > 100 |  | > 100 | > 100 | > 100 | > 100 | > 100 | > 100 | > 100 | > 100 | > 100 | > 100 | > 100 | > 100 | > 100 | > 100 | > 100 | > 100 | > 100 | > 100 |
| O=S(=O)(NC1OCCCC1I)c1ccccc1 (stereo unspecified) | > 100 |  | > 100 | > 100 | > 100 |  | > 100 | > 100 | > 100 | > 100 | > 100 | > 100 | > 100 | > 100 | > 100 | > 100 | > 100 | > 100 | > 100 | > 100 |
| O[C@H]1[C@H]2[C@H](O)C[C@H](CCOCc3ccccc3)CN2C[C@H]1O | > 100 |  | > 100 | > 100 | > 100 | > 100 | > 100 | > 100 | > 100 | > 100 | > 100 | > 100 | > 100 | > 100 | > 100 | > 100 | > 100 | > 100 | > 100 | > 100 |
| Cc1cc(=O)oc2c(C)c3oc(CBr)c(Br)c3cc12 | > 100 |  | 70.7 | > 100 | 66.8 | 50.3 | > 100 | 88.1 | 97.7 | > 100 | > 100 | > 100 | 58.7 | > 100 | > 100 | > 100 | > 100 | > 100 | 64.6 | 42.5 |
| O=C(O)c1cc(O)c2c(c1)C([C@@H]1c3cccc(O)c3C(=O)c3c(O)cc(C(=O)O)cc31)c1cccc(O)c1C2=O (stereo partly specified) | > 100 |  | > 100 | > 100 | 86.4 |  | > 100 | > 100 | > 100 | 55 |  | > 100 | > 100 | > 100 | > 100 | 49 | > 100 | > 100 | > 100 | > 100 |
| COc1cccc(NC(=O)CC(=O)N2N=C(C)C(N=Nc3ccc(S(=O)(=O)CCOS(=O)(=O)O)cc3)C2=O)c1 (stereo unspecified) | > 100 |  | 29.1 | 13.8 | > 100 | 20.2 | 20.9 | 62.5 | 15.5 | 28.3 | 6.23 |  | 20.1 | 33.9 | 14.5 | 10.4 | 27.1 | 14.5 | 21 | 30.6 |
| CC(/C=N\NC(=S)N(C)C)=N/NC(=S)N(C)C |  |  | 75.9 | > 100 | > 100 | > 54.1 | > 37.7 | > 100 | > 100 | > 100 | 70.7 | > 51.9 | > 100 | > 100 | > 47.7 | > 100 | 13.9 | > 100 | > 100 | > 100 |
| O=C(O)C1(Cc2ccc3c(c2)CCC3)Cc2ccccc2C1=O (stereo unspecified) | > 100 |  | > 100 | > 100 | > 100 | > 100 | > 100 | > 100 | > 100 | > 100 | > 100 | > 100 | > 100 | > 100 | > 100 | > 100 | > 100 | > 100 | 92.2 | > 100 |
| C#C[C@]1(O)CC[C@H]2[C@@H]3CCC4=C/C(=N\OCCN(CC)CC)CC[C@]4(C)[C@H]3CC[C@@]21C | 44.9 |  | 25.9 | 14.6 | 11.9 | 10.9 | 19.7 | 50.4 | 24.6 | 10.1 | 11.3 | 34.4 | 46.8 | 18.5 | 31.5 | 15.2 | 29.8 | 16.1 | 5.83 | 5.21 |
| CC1CN=C(NS(=O)(=O)c2cc(C(=O)Nc3ccc(F)cc3)c(Cl)cc2S)NN1 (stereo unspecified) | > 100 |  | > 100 | > 100 | > 100 | > 100 | > 100 | > 100 | > 100 | > 100 | 76.7 | > 100 | > 100 | > 100 | > 100 | > 100 | > 100 | > 100 | > 100 | > 100 |
| COc1cc2c(c(OC)c1OC)C(=O)[C@H](Br)[C@H]2NC(=O)NCCCl | > 100 |  | > 100 | > 100 | > 100 | > 100 | > 100 | > 100 | > 100 | > 100 | > 100 | > 100 | > 100 | > 100 | > 100 | > 100 | > 100 | > 100 | > 100 | > 100 |
| CCN(CC)Cc1cc(Nc2c3ccccc3nc3c4ccccc4n(C)c23)ccc1O | 6.44 | 17.9 |  | 17.8 | 7.65 | 3.68 | 30.3 | 27.4 | 15.6 | 10.9 | 36.2 | 31.6 | 27.5 | 33.4 |  |  | 57.4 |  | 15.3 | 21.8 |
| COc1ccc(CCNC(=O)CCc2ccccc2CO)cc1OC | > 100 |  | > 100 | > 100 | > 100 | > 100 | > 100 | > 100 | > 100 | > 100 | > 100 | > 100 | > 100 | > 100 | > 100 | > 100 | > 100 | > 100 | > 100 | > 100 |
| CCN(CC)c1ccc2cc(C(=O)Nc3nc(C45CC6CC(CC(C6)C4)C5)cs3)c(=O)oc2c1 | > 100 |  | > 100 | > 100 | > 100 |  | > 100 | > 100 | > 100 | > 100 |  |  | > 100 | > 100 | > 100 | > 100 | > 100 | > 100 | > 100 | > 100 |
